Source: patent publication US4613355A, “Antibiotic having herbicidal activity” (Satoshi Omura, priority 1983, dated 1986)
Counter-ions that a name gives are not always drawn.

Legend:
Assay type in all cases: in vivo
[1] = tested on: Digitaria adscendens; assay: Pre-emergence test (Example 6); details: 10 days
Description: Upland soil was put in a pot of 10 cm diameter and the seeds of Digitaria adscendens were sown in the soil surface at a depth of 1 cm. After compacting the soil surface gently, the soil was sprayed evenly with solutions of Phosalacine sodium salt dissolved at different concentrations in water (each 5 ml). 10 days later, the number of emerged seedlings was counted and the percentage inhibition of emergence was evaluated by comparison with untreated plots. For comparison, a similar test was carried out using glyphosate (monosodium salt) instead of Phosalacine salt. The results shown in the following Table indicate that the pre-emergence effect of Phosalacine was better than that of glyphosate.

[2] = tested on: Cayratia japonica; assay: Foliage treatment (Example 8); design: key: 0 indicates no effect; 5 indicates complete kill; details: Plant No. 13 Cayratia japonica
Description: (§1) Aqueous solutions of Phosalacine (Na salt) at different concentrations were applied at a rate of 1500 liters per hectare to naturally occurring plants or plants which were cultured on plates as shown in the following Table at certain stages of growth. […] One month after the foliage treatment, the inhibition of regrowth of the plants was visually investigated.

[3] = tested on: Daucus carota; assay: Foliage treatment (Example 8); design: key: 0 indicates no effect; 5 indicates complete kill; details: Plant No. 29 Daucus carota
Description: as §1

[4] = tested on: Digitaria adscendens; assay: Foliage treatment (Example 8); design: key: 0 indicates no effect; 5 indicates complete kill; details: Plant No. 10 Digitaria adscendens
Description: as §1

[5] = tested on: Helianthus tuberosus; assay: Foliage treatment (Example 8); design: key: 0 indicates no effect; 5 indicates complete kill; details: Plant No. 12 Helianthus tuberosus
Description: as §1

[6] = tested on: Imperata cyrindrica; assay: Foliage treatment (Example 8); design: key: 0 indicates no effect; 5 indicates complete kill; details: Plant No. 15 Imperata cyrindrica
Description: as §1

[7] = tested on: Oryzae sativa; assay: Foliage treatment (Example 8); design: key: 0 indicates no effect; 5 indicates complete kill; details: Plant No. 25 Oryzae sativa
Description: as §1

[8] = tested on: Pleioblastus chino; assay: Foliage treatment (Example 8); design: key: 0 indicates no effect; 5 indicates complete kill; details: Plant No. 11 Pleioblastus chino
Description: as §1

[9] = tested on: Pueraria lobata; assay: Foliage treatment (Example 8); design: key: 0 indicates no effect; 5 indicates complete kill; details: Plant No. 16 Pueraria lobata
Description: as §1

[10] = tested on: Raphanus sativus; assay: Foliage treatment (Example 8); design: key: 0 indicates no effect; 5 indicates complete kill; details: Plant No. 32 Raphanus sativus
Description: as §1

[11] = tested on: Rumex obtusifolius; assay: Foliage treatment (Example 8); design: key: 0 indicates no effect; 5 indicates complete kill; details: Plant No. 14 Rumex obtusifolius
Description: as §1

[12] = tested on: Solanum melongena; assay: Foliage treatment (Example 8); design: key: 0 indicates no effect; 5 indicates complete kill; details: Plant No. 31 Solanum melongena
Description: as §1

[13] = tested on: Triticum aestivum; assay: Foliage treatment (Example 8); design: key: 0 indicates no effect; 5 indicates complete kill; details: Plant No. 26 Triticum aestivum
Description: as §1

[14] = tested on: Castanea crenata; assay: Foliage treatment of woody plants (Example 10); design: key: 0 indicates no effect; 5 indicates complete kill; details: Plant No. 8 Castanea crenata
Source text: (§2) Aqueous solutions containing Phosalacine (Na salt) at different concentrations and 0.1% of octylphenylpolyoxy ethanol as surfactant were applied at a rate of 1500 liter per hectare to woody plants of about 60-70 cm in height. 7 and 14 days after the foliage treatment, damage to the plants was visually assessed on a scale of from 0 to 5 (cf. Example 7).

[15] = tested on: Larix leptolepis; assay: Foliage treatment of woody plants (Example 10); design: key: 0 indicates no effect; 5 indicates complete kill; details: Plant No. 23 Larix leptolepis
Source text: as §2

[16] = tested on: Picea densiflora; assay: Foliage treatment of woody plants (Example 10); design: key: 0 indicates no effect; 5 indicates complete kill; details: Plant No. 22 Picea densiflora
Source text: as §2

CC(C)C[C@H](NC(=O)[C@H](C)NC(=O)[C@@H](N)CCP(C)(=O)O)C(=O)O [Phosalacine (Na salt)]
Percent inhibition of emergence ([1]; 500 g/ha): 80%
Percent inhibition of emergence ([1]; 1000 g/ha): 100%
Percent inhibition of emergence ([1]; 2500 g/ha): 100%
damage to the plants, scale 0 to 5 ([2]; 0.05%, 7 days): 3
damage to the plants, scale 0 to 5 ([2]; 0.05%, 14 days): 4
damage to the plants, scale 0 to 5 ([2]; 0.1%, 7 days): 5
damage to the plants, scale 0 to 5 ([2]; 0.1%, 14 days): 5
damage to the plants, scale 0 to 5 ([3]; 0.05%, 7 days): 3
damage to the plants, scale 0 to 5 ([3]; 0.05%, 14 days): 4
damage to the plants, scale 0 to 5 ([3]; 0.1%, 7 days): 5
damage to the plants, scale 0 to 5 ([3]; 0.1%, 14 days): 5
damage to the plants, scale 0 to 5 ([4]; 0.05%, 7 days): 3
damage to the plants, scale 0 to 5 ([4]; 0.05%, 14 days): 4
damage to the plants, scale 0 to 5 ([4]; 0.1%, 7 days): 5
damage to the plants, scale 0 to 5 ([4]; 0.1%, 14 days): 5
damage to the plants, scale 0 to 5 ([5]; 0.05%, 7 days): 3
damage to the plants, scale 0 to 5 ([5]; 0.05%, 14 days): 4
damage to the plants, scale 0 to 5 ([5]; 0.1%, 7 days): 5
damage to the plants, scale 0 to 5 ([5]; 0.1%, 14 days): 5
damage to the plants, scale 0 to 5 ([6]; 0.05%, 7 days): 3
damage to the plants, scale 0 to 5 ([6]; 0.05%, 14 days): 4
damage to the plants, scale 0 to 5 ([6]; 0.1%, 7 days): 5
damage to the plants, scale 0 to 5 ([6]; 0.1%, 14 days): 5
damage to the plants, scale 0 to 5 ([7]; 0.05%, 7 days): 3
damage to the plants, scale 0 to 5 ([7]; 0.05%, 14 days): 4
damage to the plants, scale 0 to 5 ([7]; 0.1%, 7 days): 5
damage to the plants, scale 0 to 5 ([7]; 0.1%, 14 days): 5
damage to the plants, scale 0 to 5 ([8]; 0.05%, 7 days): 3
damage to the plants, scale 0 to 5 ([8]; 0.05%, 14 days): 4
damage to the plants, scale 0 to 5 ([8]; 0.1%, 7 days): 5
damage to the plants, scale 0 to 5 ([8]; 0.1%, 14 days): 5
damage to the plants, scale 0 to 5 ([9]; 0.05%, 7 days): 3
damage to the plants, scale 0 to 5 ([9]; 0.05%, 14 days): 4
damage to the plants, scale 0 to 5 ([9]; 0.1%, 7 days): 5
damage to the plants, scale 0 to 5 ([9]; 0.1%, 14 days): 5
damage to the plants, scale 0 to 5 ([10]; 0.05%, 7 days): 3
damage to the plants, scale 0 to 5 ([10]; 0.05%, 14 days): 4
damage to the plants, scale 0 to 5 ([10]; 0.1%, 7 days): 5
damage to the plants, scale 0 to 5 ([10]; 0.1%, 14 days): 5
damage to the plants, scale 0 to 5 ([11]; 0.05%, 7 days): 3
damage to the plants, scale 0 to 5 ([11]; 0.05%, 14 days): 4
damage to the plants, scale 0 to 5 ([11]; 0.1%, 7 days): 5
damage to the plants, scale 0 to 5 ([11]; 0.1%, 14 days): 5
damage to the plants, scale 0 to 5 ([12]; 0.05%, 7 days): 3
damage to the plants, scale 0 to 5 ([12]; 0.05%, 14 days): 5
damage to the plants, scale 0 to 5 ([12]; 0.1%, 7 days): 5
damage to the plants, scale 0 to 5 ([12]; 0.1%, 14 days): 5
damage to the plants, scale 0 to 5 ([13]; 0.05%, 7 days): 3
damage to the plants, scale 0 to 5 ([13]; 0.05%, 14 days): 4
damage to the plants, scale 0 to 5 ([13]; 0.1%, 7 days): 5
damage to the plants, scale 0 to 5 ([13]; 0.1%, 14 days): 5
damage to the plants, scale 0 to 5 ([14]; 0.125%, 7 days): 5
damage to the plants, scale 0 to 5 ([14]; 0.125%, 14 days): 5
damage to the plants, scale 0 to 5 ([14]; 0.25%, 7 days): 5
damage to the plants, scale 0 to 5 ([14]; 0.25%, 14 days): 5
damage to the plants, scale 0 to 5 ([14]; 0.5%, 7 days): 5
damage to the plants, scale 0 to 5 ([14]; 0.5%, 14 days): 5
damage to the plants, scale 0 to 5 ([15]; 0.125%, 7 days): 4
damage to the plants, scale 0 to 5 ([15]; 0.125%, 14 days): 5
damage to the plants, scale 0 to 5 ([15]; 0.25%, 7 days): 4
damage to the plants, scale 0 to 5 ([15]; 0.25%, 14 days): 5
damage to the plants, scale 0 to 5 ([15]; 0.5%, 7 days): 4
damage to the plants, scale 0 to 5 ([15]; 0.5%, 14 days): 5
damage to the plants, scale 0 to 5 ([16]; 0.125%, 7 days): 4
damage to the plants, scale 0 to 5 ([16]; 0.125%, 14 days): 5
damage to the plants, scale 0 to 5 ([16]; 0.25%, 7 days): 4
damage to the plants, scale 0 to 5 ([16]; 0.25%, 14 days): 5
damage to the plants, scale 0 to 5 ([16]; 0.5%, 7 days): 4
damage to the plants, scale 0 to 5 ([16]; 0.5%, 14 days): 5
